Reference: paper PMC3625590, “NBM-T-L-BMX-OS01, Semisynthesized from Osthole, Is a Novel Inhibitor of Histone Deacetylase and Enhances Learning and Memory in Rats” (Evidence-based Complementary and Alternative Medicine : eCAM, 2013)

Columns and labels:
Type in all cases: in vivo, Sprague-Dawley rats
[1] = tested on: naïve rats; test: Water-maze learning, naïve rats; conditions: 5 mg/kg/d i.p.
Protocol: SAHA was supplied by NatureWise Biotech and Medicals Corporation (Taipei, Taiwan). […] (St. Louis, MO, USA). The BMX and SAHA stock (100 mg/mL) was dissolved in DMSO and diluted with saline to a final concentration of 0.5 mg/mL (in 0.5% DMSO/saline). […] SD rats were randomly divided into 3 groups. For the naïve animal experiments, the BMX-injected or SAHA-injected groups were injected with BMX (5 mg/kg/d) or SAHA (5 mg/kg/d) intraperitoneally 7 d prior to behavioral experiments and during the experimentation. The control group received the 0.5% DMSO/saline injection. The injection volume was 10 μL/g of body weight. The injections were performed once per day. For the amnesia experiment, the protocol was adopted from previous studies with modifications. […] The control group received the 0.5% DMSO/saline injection. The injection volume was 10 μL/g of body weight. […] The method was adopted from that of a previous study with modifications. A plastic circular pool 2.0 m in diameter and 0.6 m in height was filled with water (25 ± 2°C) to a depth of 20 cm. A circular platform (8 cm in diameter) was placed at a specific location from the edge of the pool and submerged 2-3 cm below the water surface. Water was made cloudy by adding toxic-free dye. Distinctive visual cues were set on the wall. For spatial learning, animals were subjected to 3 trials per day, with one trial early in the morning, one trial at noon, and another in the late afternoon. The training procedure lasted 4 days, and a total of 12 trials were given. This procedure was adopted because spaced training is a better paradigm to facilitate memory consolidation. For these trials, the rats were positioned at different starting points spaced equally around the perimeter of the pool in random order. They had 120 s to find the hidden platform. […] The time each animal took to reach the platform was recorded as the escape latency. […] The rats were placed in the pool with the platform removed, and the time they spent in each quadrant (Quadrants 1, 2, 3, and 4) was recorded. […]

[2] = tested on: HDAC8; test: HDAC8 activity assay (Fluor-de-Lys) in brain nuclear extracts after behavioural tests; conditions: 5 mg/kg/d i.p., compared with trained-control animals
Protocol: For the HDAC8 activity assay, the deacetylase activity of HDAC8 was measured using the commercially available Fluor-de-Lys-HDAC8 deacetylase substrate (Enzo, New York, NY, USA) according to the manufacturer instructions. […] The homogenate was centrifuged at 1000 ×g for 10 min to obtain the nuclei pellet. […] To determine the HDAC activity, 10 μg of nuclear extracts was incubated with a specific substrate (100 μM) for 30 min at 37°C, followed by the addition of a developer solution for 30 min at 37°C. […] Data were normalized to swimming control, footshock control, and nontrained-control animals.

[3] = tested on: Sco-induced amnesia rats; test: Passive one-way avoidance, Sco-induced memory impairment; conditions: Sco 1.5 mg/kg/d; BMX or SAHA 5 mg/kg/d i.p.; 1 day and 7 days after footshock
Protocol: The BMX and SAHA stock (100 mg/mL) was dissolved in DMSO and diluted with saline to a final concentration of 0.5 mg/mL (in 0.5% DMSO/saline). Sco was dissolved in saline to a final concentration of 0.15 mg/mL based on previous studies [35, 36]. SD rats were randomly divided into 3 groups. For the naïve animal experiments, the BMX-injected or SAHA-injected groups were injected with BMX (5 mg/kg/d) or SAHA (5 mg/kg/d) intraperitoneally 7 d prior to behavioral experiments and during the experimentation. The control group received the 0.5% DMSO/saline injection. The injection volume was 10 μL/g of body weight. The injections were performed once per day. For the amnesia experiment, the protocol was adopted from previous studies [35, 36] with modifications. The Sco-injected (SAHA + Sco) or (BMX + Sco)-injected groups were injected with Sco (1.5 mg/kg/d), SAHA (5 mg/kg/d) or BMX (5 mg/kg/d), intraperitoneally 7 d prior to behavioral experiments and during the experimentation. The control group received the 0.5% DMSO/saline injection. The injection volume was 10 μL/g of body weight. […]
The apparatus consisted of a trough-shaped alley divided by a sliding door that separates an illuminated safety compartment and a dark compartment. […] The behavioral task, including the training and testing procedures, was recorded between 8:00 AM and 6:00 PM. […]

[4] = tested on: Sco-induced amnesia rats; test: Novel object recognition, Sco-induced memory impairment; conditions: Sco 1.5 mg/kg/d; BMX or SAHA 5 mg/kg/d i.p.; 8 h
Protocol: SAHA was supplied by NatureWise Biotech and Medicals Corporation (Taipei, Taiwan). […] (St. Louis, MO, USA). The BMX and SAHA stock (100 mg/mL) was dissolved in DMSO and diluted with saline to a final concentration of 0.5 mg/mL (in 0.5% DMSO/saline). […] SD rats were randomly divided into 3 groups. For the naïve animal experiments, the BMX-injected or SAHA-injected groups were injected with BMX (5 mg/kg/d) or SAHA (5 mg/kg/d) intraperitoneally 7 d prior to behavioral experiments and during the experimentation. The control group received the 0.5% DMSO/saline injection. The injection volume was 10 μL/g of body weight. The injections were performed once per day. For the amnesia experiment, the protocol was adopted from previous studies with modifications. […] The control group received the 0.5% DMSO/saline injection. The injection volume was 10 μL/g of body weight. […] The method used was adopted from that of a previous study with modifications. During familiarization, rats were allowed to explore 2 identical objects in an open field box (90 × 70 × 60 cm) for 5 min. The criteria used for exploration were a distance less than 1.5 cm between the rat and the object or direct contact with the object. […] The time that each rat spent exploring the 2 objects during a 5 min period was recorded. […]

O=C(CCCCCCC(=O)Nc1ccccc1)NO [SAHA, suberoylanilide hydroxamic acid, reference compound]
escape latency in finding the hidden platform [1]: shortened escape latency
visual discrimination ability, motor coordination, and motivational state (swimming speed, visible platform learning) [1]: Neither BMX nor SAHA affects
probe trial, time spent in target quadrant ([1]; day 5): showed no difference compared with the control group
HDAC8 activity in amygdala ([2]; 7 days after footshock): did not have increased HDAC8 activity
HDAC8 activity in hippocampus ([2]; after novel object recognition task): did not have further increased HDAC8 activity
HDAC8 activity in hippocampus ([2]; after water-maze probe trial): did not increase HDAC8 activity
retention time in the illuminated chamber [3]: showed less retention time in the illuminated chamber
exploratory preference for the novel object (NO) [4]: showed no exploratory preference for the NO
